The target in assay [1] is T1, EHMT1 (Homo sapiens, UniProt Q9H9B1).
T1 sequence (Q9H9B1 1-1298): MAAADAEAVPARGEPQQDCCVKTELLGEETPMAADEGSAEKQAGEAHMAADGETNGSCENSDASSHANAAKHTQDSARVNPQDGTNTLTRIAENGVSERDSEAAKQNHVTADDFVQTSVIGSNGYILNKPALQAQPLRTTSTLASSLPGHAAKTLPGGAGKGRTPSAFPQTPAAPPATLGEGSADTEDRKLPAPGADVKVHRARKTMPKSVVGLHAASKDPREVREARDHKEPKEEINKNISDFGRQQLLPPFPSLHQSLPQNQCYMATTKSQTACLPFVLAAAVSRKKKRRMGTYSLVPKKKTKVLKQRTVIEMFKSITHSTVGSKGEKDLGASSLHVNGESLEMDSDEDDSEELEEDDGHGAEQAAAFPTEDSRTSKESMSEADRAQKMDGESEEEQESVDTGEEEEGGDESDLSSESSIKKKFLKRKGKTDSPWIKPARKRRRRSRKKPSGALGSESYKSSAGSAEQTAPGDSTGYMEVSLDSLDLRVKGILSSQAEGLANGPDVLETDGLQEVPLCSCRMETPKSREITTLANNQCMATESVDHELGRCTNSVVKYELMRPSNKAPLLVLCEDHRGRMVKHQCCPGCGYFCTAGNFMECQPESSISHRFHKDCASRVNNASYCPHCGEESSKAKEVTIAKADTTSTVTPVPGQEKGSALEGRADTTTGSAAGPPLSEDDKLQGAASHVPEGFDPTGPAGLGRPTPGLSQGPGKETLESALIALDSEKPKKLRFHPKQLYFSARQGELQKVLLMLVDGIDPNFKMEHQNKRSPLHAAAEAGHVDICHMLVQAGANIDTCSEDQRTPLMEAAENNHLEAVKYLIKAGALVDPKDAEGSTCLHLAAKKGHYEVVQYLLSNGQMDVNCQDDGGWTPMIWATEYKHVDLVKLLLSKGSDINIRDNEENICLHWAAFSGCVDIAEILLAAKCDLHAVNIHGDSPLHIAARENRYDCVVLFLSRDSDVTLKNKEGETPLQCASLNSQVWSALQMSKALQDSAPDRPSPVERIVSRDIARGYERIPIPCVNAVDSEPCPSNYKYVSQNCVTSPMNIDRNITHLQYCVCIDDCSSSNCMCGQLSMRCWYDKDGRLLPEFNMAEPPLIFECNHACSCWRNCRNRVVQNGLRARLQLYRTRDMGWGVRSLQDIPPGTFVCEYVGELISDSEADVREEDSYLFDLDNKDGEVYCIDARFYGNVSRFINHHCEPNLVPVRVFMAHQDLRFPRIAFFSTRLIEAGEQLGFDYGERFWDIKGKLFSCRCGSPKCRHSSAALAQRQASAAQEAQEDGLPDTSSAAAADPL
In words: EHMT1 enzyme assay on peptide substrate (EHMT1 PEP). As to conditions: Table III; read-out: EHMT1 PEP (IC50 μM). Format: biochemical.

Assay [2] has as its target T2, human EHMT2 913-1193 (Homo sapiens, UniProt Q96KQ7).
T2 construct: recombinant purified human EHMT2 913-1193, Viva; purchased Viva
T2 sequence (Q96KQ7 913-1193): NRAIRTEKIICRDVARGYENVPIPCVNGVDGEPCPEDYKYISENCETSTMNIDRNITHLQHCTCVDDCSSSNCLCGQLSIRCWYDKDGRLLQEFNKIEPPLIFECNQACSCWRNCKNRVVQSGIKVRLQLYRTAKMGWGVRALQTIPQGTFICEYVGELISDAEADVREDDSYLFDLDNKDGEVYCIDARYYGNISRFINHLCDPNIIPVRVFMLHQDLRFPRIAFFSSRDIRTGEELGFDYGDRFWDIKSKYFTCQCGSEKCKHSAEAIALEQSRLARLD
Nature of the assay: EHMT2 enzyme assay on histone peptide substrate (EHMT2 PEP). Format: biochemical. As to conditions: Table III; read-out: EHMT2 PEP (IC50 μM). A digest of the protocol: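 Compounds were tested as 3-fold dilutions, 10 points from a 50 μM final top (2% DMSO), after 30-min preincubation with 0.031 nM enzyme in Bicine buffer pH 7.5. Transfer of ^3H-methyl from ^3H-SAM to biotinylated histone peptide ran 60 min at room temperature and was detected by streptavidin Flashplate scintillation.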

Consider `CCNC(=O)c1cc(Nc2nccc(NC)n2)ccc1OC` [Compound 395], for which the 50% inhibitory concentration (IC50) in assay [1] and in assay [2] was above 10 µM in each case.

Regarding `CCCN1CCC(COc2cc(Nc3nccc(NC)n3)ccc2OC)C1` (stereo not drawn) [Compound 420, N^2-(4-methoxy-3-((1-propylpyrrolidin-3-yl)methoxy)phenyl)-N^4-methylpyrimidine-2,4-diamine], the IC50 in assay [1] and in assay [2] was 0.1 to 1 µM each time.

For `CNc1ccnc(Nc2ccc(OC)c(OCC3CCN(C)C3)c2)n1` (stereo not drawn) [Compound 393], the IC50 in assay [1] is below 0.1 µM; in assay [2], 0.1 to 1 µM.

Consider `CNc1ccnc(Nc2ccc(OC)c(OCC3CCN(C(C)C)C3)c2)n1` (stereo not drawn) [Compound 409, N^2-(3-((1-isopropylpyrrolidin-3-yl)methoxy)-4-methoxyphenyl)-N^4-methylpyrimidine-2,4-diamine], for which the IC50 in assay [1] and in assay [2] was below 0.1 µM each time.

As for `COc1ccc(Nc2nccc(CNC3CCOCC3)n2)cc1OCCCNc1ccccc1` [Compound 365], the IC50 in assay [1] and in assay [2] was above 10 µM throughout.

`CNc1cc(C)nc(Nc2ccc(OC)c(OCC3CCN(C)C3)c2)n1` (single isomer, unassigned) [Compound 418]: the IC50 in assay [1] and in assay [2] was below 0.1 µM in each case.

As to `CCNC(=O)c1cc(Nc2nccc(NC)n2)ccc1Cl` [Compound 396], the figures for the IC50 in assay [1] and in assay [2] were 1 to 10 µM and above 10 µM, respectively.

Regarding `CNc1ccnc(Nc2ccc3ccn(CCN4CCCC4)c(=O)c3c2)n1` [Compound 381], the values for the IC50 in assay [1] and in assay [2] were above 10 µM and 1 to 10 µM, respectively.

As to `CNc1ccnc(Nc2ccc(OC)c(COCCN3CCCC3)c2)n1` [Compound 382], the IC50 in assay [1] and in assay [2] was 0.1 to 1 µM in each case.

(Values after patent US20210198277A1, “AMINE-SUBSTITUTED ARYL OR HETEROARYL COMPOUNDS” (Epizyme, Inc., priority 2016, published 2021).)
